Test results reported in PMC4122966, “Novel VCP modulators mitigate major pathologies of rd10, a mouse model of retinitis pigmentosa” (Scientific Reports, 2014).

Experiments:
HeLa cells = test: cell death-inducing activity; type: cell-based; conditions: 50 μM, 24 hours
Excerpt: (§1) Figure 1 Structures and characterization of KUSs, novel VCP modulators. (a) Structures and IC50 values of KUS11, KUS31, KUS69, KUS94, KUS121, and KUS187. […] (b) ATPase activity assays of recombinant human […], comparing KUSs and DBeQ. (c) Immunoblot analysis of ubiquitinated proteins, an ER stress marker (CHOP), and an autophagy indicator (LC3), comparing KUSs and DBeQ. As a control, MG132, a proteasome inhibitor, was used for the analysis. Actin served as a loading control. Complete scans of the different blots are presented in Supplementary Fig. 7. (d) Comparison of KUSs and DBeQ for cell death-inducing activities. HeLa cells were treated with 50 μM DBeQ or KUSs for 24 hours. […]

[1] = tested on: whole cell soluble lysate of neuronally differentiated PC12 cells; test: total ATPase activity in clarified whole cell lysates; type: biochemical
Method: Figure 3 Effects of KUSs on ATPase activities, ATP levels, and acetyl-CoA levels. (a) Inhibition of ATPase activity in clarified whole cell lysates by KUS121, KUS187, and KUS94, but not KUS11. Total ATPase activities in clarified whole cell lysates from differentiated PC12 cells were measured in the absence and presence of KUSs. Relative ATPase activities are shown with values in the absence of KUS (D: DMSO) set at 100%. (b) HeLa cells were cultured in medium with low glucose (0.25 g/l) for 20 hours, with or without KUSs, and ATP levels were measured with luciferase assays. (c) HeLa cells were cultured in medium with low glucose (0.25 g/l) for 20 hours, with or without KUSs, and acetyl-CoA levels were measured. * P < 0.05, ** P < 0.01, *** P < 0.001 vs. DMSO control (Dunnett's test, n = 3).
We measured ATPase activities by modifying the molybdate assay, which was as described previously. In the assay, 1 μg of whole cell soluble lysate of neuronally differentiated PC12 cells, or 500 ng recombinant VCP protein, was incubated in 20 μl of the ATPase assay buffer (20 mM HEPES (pH 7.4), 50 mM KCl, 5 mM MgCl2) with 100 μM [γ-^32P]ATP (18.5 GBq/mmol) (PerkinElmer) at 37°C for 20 min. After incubation, the reaction was quenched by addition of 200 μl of 8% ice-cold trichloroacetic acid solution with 1 mM K2HPO4, and then 50 μl of solution A (3.75% ammonium molybdate, 0.02 M silicotungstic acid in 3 N H2SO4) and 300 μl of n-butyl acetate were added to the reaction. The samples were mixed well and centrifuged at 12,000 × g for 1 min. Then, 200 μl aliquots from the upper organic phases were taken and their radioactivity was determined with a liquid scintillation counter for β-radiation, which determined the amounts of ^32P released.

C57BL/6 wild-type mice = test: electroretinogram of adult wild-type mice administered KUS; type: in vivo, mouse
Method: Electroretinogram recording was performed to assess the visual function of rd10 mice at ages of 21, 25, 29, and 33 days. Mice were dark-adapted overnight before anesthetization. Electroretinograms were recorded using a gold loop corneal electrode with a light-emitting diode (Mayo Corp., Inazawa, Japan). A reference electrode was placed in the mouth and a ground electrode was inserted to the anus. Stimuli were produced with a light emitting diode stimulator (Mayo Corp.). The electroretinogram response signals were amplified, digitized at 10 kHz with a band-pass filter of 0.3 to 500 Hz, and analyzed (PowerLab 2/25; AD instruments, New South Wales, Australia). The a- and b-wave amplitudes and a-wave latency of the mixed cone and rod response (ISCEV (International Society for Clinical Electrophysiology of Vision) standard; scotopic 3.0)[34] were analyzed.
Supplementary Figure 6 (a) Time-dependent changes of b-wave amplitude in dark-adapted electroretinograms in non-treated C57BL/6 wild-type mice. b-wave […]
= 0.004. (b, c) a-wave (b) and b-wave (c) amplitude of adult C57BL/6 wild-type mice administered saline or KUS121 for 7 days. […]
amplitudes of a-and b-waves between mice administered saline or KUS121 (a-wave […]
92.9 vs. 420.8 ± 52.6, P = 0.86, t-test). Error bars indicate SD.
Lane 1, 1µM MG132; lane 2, control; lane 3, 5µM DBeQ; lane 4, 10µM DBeQ; lane 5, 15µM DBeQ; lane 6: KUS11; lane 7, KUS31; lane 8, KUS69; lane 9, KUS 94; lane 10, […]
Lane 1, Tm(-); lane 2, control; lane 3, KUS69; lane 4, KUS94; lane 5, KUS121; lane 6, KUS187; lane 7, Tm(-); lane 8, control; lane 9, 0.1mM ATP; lane 10, 0.3mM ATP; lane 11, 1mM ATP; lane 12, 3mM methylpyruvate; lane 13, 10mM methylpyruvate.

[2] = tested on: essentially all tested cultured cells; test: cellular toxicity on cultured cells; type: cell-based; conditions: up to 50 μM
cellular VCP functions = test: immunoblot of ubiquitinated proteins, CHOP (ER stress) and LC3 (autophagy) in cultured cells; type: cell-based
Excerpt: as §1

Structure (SMILES): Cc1cc(F)ccc1-c1ccc(/N=N/c2cc(S(=O)(=O)O)c3ccccc3c2N)cn1 [KUS121]
- induction of cell death (HeLa cells): did not induce any of these phenotypes
- lowering of total ATPase activity ([1]; 100 nM compound): approximately 20%
- lowering of total ATPase activity ([1]; 1 μM compound): ~40%
- a-wave amplitude (C57BL/6 wild-type mice; adult C57BL/6 wild-type mice, KUS121 for 7 days, saline 203.5 ± 41.6, P = 0.56, in µV (unit assumed)): 195.8 ± 30.2
- b-wave amplitude (C57BL/6 wild-type mice; adult C57BL/6 wild-type mice, KUS121 for 7 days, saline 425.8 ± 92.9, P = 0.86, in µV (unit assumed)): 420.8 ± 52.6
- change in the amplitude of a- and b-waves vs saline (C57BL/6 wild-type mice; adult wild-type mice): no significant differences
- apparent cellular toxicity [2]: did not manifest any apparent cellular toxicity
- induction of accumulation of ubiquitinated proteins, ER stress (CHOP), autophagy (LC3) (cellular VCP functions): did not induce any of these phenotypes
